Reference: US10723699B2 (Hyundai Pharm Co., Ltd., priority 2015, dated 2020)
Like-named read-outs stand apart in the source and are kept apart here.

Biological target: T1, G protein-coupled receptor 119 (GPR-119) (Mesocricetus auratus, UniProt A0A1U8CD06)
T1 construct: hamster-derived β-cells containing G protein-coupled receptor 119 (GPR-119), HIT-T15 cells; host or cells: HIT-T15 (hamster pancreatic β-cells)
T1 sequence (A0A1U8CD06 1-334): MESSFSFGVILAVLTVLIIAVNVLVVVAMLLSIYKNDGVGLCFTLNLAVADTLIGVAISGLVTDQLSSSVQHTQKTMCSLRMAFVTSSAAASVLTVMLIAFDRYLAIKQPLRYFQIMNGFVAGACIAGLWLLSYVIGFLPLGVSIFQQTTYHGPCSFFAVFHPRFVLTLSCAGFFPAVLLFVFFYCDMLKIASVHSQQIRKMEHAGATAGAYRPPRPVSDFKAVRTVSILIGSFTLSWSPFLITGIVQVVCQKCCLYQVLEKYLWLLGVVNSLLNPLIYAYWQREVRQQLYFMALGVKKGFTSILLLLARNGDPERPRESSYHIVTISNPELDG
Assay: cAMP activity in HIT-T15 cells (cAMP dynamic kit, FRET)
Format: cell-based, hamster
Experimental: To check whether the cyclohexene derivatives according to the present invention activate cyclic adenosine monophosphate (cAMP), experiments were carried out, as follows.
The HIT-T15 cells were plated on a 96-well plate at 60,000 cells per well. On the next day of plating, the cells were treated with a varying concentration of each of the example compounds according to the present invention, and incubated at 37° C. for an hour. In this case, each of the treated compounds was used at six concentrations, ranging from 0.0032 to 10 μM, to treat the cells.
The cyclic adenosine monophosphate (cAMP) activity was measured according to the manufacturer's instruction using a cAMP dynamic kit commercially available from Cis Bio Inc. (Bedford, Mass.). The cells were lysed, and a level of cAMP was determined by a competitive immunoassay using D2-labeled cAMP and a cryptate-labeled anti-cAMP antibody. Fluorescence was read in Flex Station (Molecular Devices). […] Unlabeled cAMP in the cell lysate competed with the D2-labeled cAMP against the cryptate-labeled antibody. Since a decrease in the measured intensity of the FRET signals represents a level of cAMP in the cells, the cAMP activities of the compounds are calculated as a change in FRET signals by adjusting an amount of dimethyl sulfoxide (DMSO).

[1] = 1 hour at 37° C., six concentrations 0.0032 to 10 μM, read-out: EC50

## CC(C)c1noc(N2CCC(COc3ccc(C4=CCC(C(=O)N5CCCCC5)CC4)cn3)CC2)n1 (stereo not shown) [Example 316, (4-(6-((1-(3-isopropyl-1,2,4-oxadiazol-5-yl)piperidin-4-yl)methoxy)pyridin-3-yl)cyclohex-3-enyl)(piperidin-1-yl)methanone]
[1]
  EC50: 37 nM
Table 2, read-out: EC50 value
  EC50: ≤ 50 nM

## CCc1cnc(N2CCC(COc3ccc(C4=CCC(C(=O)N5CCOCC5)CC4)cc3F)CC2)nc1 (stereo not shown) [Example 299, (4-(4-((1-(5-ethylpyrimidin-2-yl)piperidin-4-yl)methoxy)-3-fluorophenyl)cyclohex-3-enyl)(morpholino)methanone]
[1]
  EC50: 12 nM
Table 2, read-out: EC50 value
  EC50: ≤ 50 nM

## CC(C)c1noc(N2CCC(COc3ccc(C4=CCC(C(=O)N5CCC(C(N)=O)CC5)CC4)cc3F)CC2)n1 (stereo not shown) [Example 361, 1-(4-(3-fluoro-4-((1-(3-isopropyl-1,2,4-oxadiazol-5-yl)piperidin-4-yl)methoxy)phenyl)cyclohex-3-enecarbonyl)piperidine-4-carboxamide]
[1]
  EC50: 48 nM
Table 2, read-out: EC50 value
  EC50: ≤ 50 nM

## CC(C)c1noc(N2CCC(COc3ccc(C4=CCC(C(=O)N5CCN(CCCO)CC5)CC4)cc3F)CC2)n1 (stereo not shown) [Example 347, (4-(3-fluoro-4-((1-(3-isopropyl-1,2,4-oxadiazol-5-yl)piperidin-4-yl)methoxy)phenyl)cyclohex-3-enyl)(4-(3-hydroxypropyl)piperazin-1-yl)methanone]
[1]
  EC50: 55 nM

## O=C(C1CC=C(c2ccc(OCC3CCN(C(=O)C4(C(F)(F)F)CC4)CC3)c(F)c2)CC1)N1CCCC1 (stereo not shown) [Example 421, (4-(3-fluoro-4-((1-(1-(trifluoromethyl)cyclopropanecarbonyl)piperidin-4-yl)methoxy)phenyl)cyclohex-3-enyl)(pyrrolidin-1-yl)methanone]
[1]
  EC50: 53 nM

## CON=C1CCN(C(=O)C2CC=C(c3ccc(OCC4CCN(c5nc(C(C)C)no5)CC4)cc3)CC2)CC1 (stereo not shown) [Example 410, (4-(4-((1-(3-isopropyl-1,2,4-oxadiazol-5-yl)piperidin-4-yl)methoxy)phenyl)cyclohex-3-enyl)(4-(methoxyimino)piperidin-1-yl)methanone]
[1]
  EC50: 14 nM

## CC(C)c1noc(N2CCC(COc3ccc(C4=CCC(C(=O)N5CCCC5)CC4)cc3F)CC2)n1 (stereo not shown) [Example 331, (4-(3-fluoro-4-((1-(3-isopropyl-1,2,4-oxadiazol-5-yl)piperidin-4-yl)methoxy)phenyl)cyclohex-3-enyl)(pyrrolidin-1-yl)methanone]
[1]
  EC50: 11 nM
Table 2, read-out: EC50 value
  EC50: ≤ 50 nM

## O=C(OC(CF)CF)N1CCC(COc2ccc(C3=CCC(C(=O)N4CCOCC4)CC3)cc2F)CC1 (stereo not shown) [Example 447, 1,3-difluoropropan-2-yl 4-((2-fluoro-4-(4-(morpholine-4-carbonyl)cyclohex-1-enyl)phenoxy)methyl)piperidine-1-carboxylate]
[1]
  EC50: 62 nM

## CCc1cnc(N2CCC(COc3ccc(C4=CCC(C(=O)N5CCCC5)CC4)cc3F)CC2)nc1 (single isomer, unassigned; (-)) [Example 429, (−)-(4-(4-((1-(5-ethylpyrimidin-2-yl)piperidin-4-yl)methoxy)-3-fluorophenyl)cyclohex-3-enyl)(pyrrolidin-1-yl)methanone]
[1]
  EC50: 21 nM
Table 2, read-out: EC50 value
  EC50: ≤ 50 nM

## CCc1cnc(N2CCC(COc3ccc(C4=CCC(C(=O)N5CCC(C#N)CC5)CC4)cc3F)CC2)nc1 (stereo not shown) [Example 321, 1-(4-(4-((1-(5-ethylpyrimidin-2-yl)piperidin-4-yl)methoxy)-3-fluorophenyl)cyclohex-3-enecarbonyl)piperidine-4-carbonitrile]
[1]
  EC50: 28 nM
Table 2, read-out: EC50 value
  EC50: ≤ 50 nM

## CC(C)(C)OC(=O)N1CCC(COc2ccc(C3=CCC(C(=O)N4CCOCC4)CC3)nc2)CC1 (stereo not shown) [Example 327, tert-butyl 4-((6-(4-(morpholine-4-carbonyl)cyclohex-1-enyl)pyridin-3-yloxy)methyl)piperidine-1-carboxylate]
[1]
  EC50: 80 nM

## CCc1cnc(N2CCC(COc3ccc(C4=CCC(C(=O)NC5CCC5)CC4)cc3F)CC2)nc1 (stereo not shown) [Example 303, N-cyclobutyl-4-(4-((1-(5-ethylpyrimidin-2-yl)piperidin-4-yl)methoxy)-3-fluorophenyl)cyclohex-3-enecarboxamide]
[1]
  EC50: 29 nM
Table 2, read-out: EC50 value
  EC50: ≤ 50 nM

## CCc1cnc(N2CCC(COc3ccc(C4=CCC(C(=O)N5CCN(CCO)CC5)CC4)cc3)CC2)nc1 (stereo not shown) [Example 172, (4-(4-((1-(5-ethylpyrimidin-2-yl)piperidin-4-yl)methoxy)phenyl)cyclohex-3-enyl)(4-(2-hydroxyethyl)piperazin-1-yl)methanone]
Table 2, read-out: EC50 value
  EC50: ≤ 50 nM

## CCc1cnc(N2CCC(COc3ccc(C4=CCC(C(=O)N5CCC5)CC4)c(F)c3)CC2)nc1 (stereo not shown) [Example 425, azetidin-1-yl(4-(4-((1-(5-ethylpyrimidin-2-yl)piperidin-4-yl)methoxy)-2-fluorophenyl)cyclohex-3-enyl)methanone]
[1]
  EC50: 48 nM
Table 2, read-out: EC50 value
  EC50: ≤ 50 nM

## CCc1cnc(N2CCC(COc3ccc(C4=CCC(C(=O)N5CCSCC5)CC4)cc3F)CC2)nc1 (stereo not shown) [Example 300, (4-(4-((1-(5-ethylpyrimidin-2-yl)piperidin-4-yl)methoxy)-3-fluorophenyl)cyclohex-3-enyl)(thiomorpholino)methanone]
[1]
  EC50: 8.5 nM
Table 2, read-out: EC50 value
  EC50: ≤ 50 nM

## O=C(C1CC=C(c2ccc(OCC3CCN(c4nc(C(F)(F)F)no4)CC3)c(F)c2)CC1)N1CCCC1 (stereo not shown) [Example 435, (4-(3-fluoro-4-((1-(3-(trifluoromethyl)-1,2,4-oxadiazol-5-yl)piperidin-4-yl)methoxy)phenyl)cyclohex-3-enyl)(pyrrolidin-1-yl)methanone]
[1]
  EC50: 13 nM
Table 2, read-out: EC50 value
  EC50: ≤ 50 nM

## CCc1cnc(N2CCC(COc3ccc(C4=CCC(C(=O)N5CCC(CCO)CC5)CC4)cc3)CC2)nc1 (stereo not shown) [Example 173, (4-(4-((1-(5-ethylpyrimidin-2-yl)piperidin-4-yl)methoxy)phenyl)cyclohex-3-enyl)(4-(2-hydroxyethyl)piperidin-1-yl)methanone]
Table 2, read-out: EC50 value
  EC50: ≤ 50 nM

## O=C(Oc1ccc([N+](=O)[O-])cc1)N1CCC(COc2ccc(C3=CCC(C(=O)N4CCCC4)CC3)cc2F)CC1 (stereo not shown) [Example 404, 4-nitrophenyl 4-((2-fluoro-4-(4-(pyrrolidine-1-carbonyl)cyclohex-1-enyl)phenoxy)methyl)piperidine-1-carboxylate]
[1]
  EC50: 55 nM

## CC(C)c1noc(N2CCC(COc3ccc(C4=CCC(C(=O)NCC(C)(C)CO)CC4)cc3F)CC2)n1 (stereo not shown) [Example 371, 4-(3-fluoro-4-((1-(3-isopropyl-1,2,4-oxadiazol-5-yl)piperidin-4-yl)methoxy)phenyl)-N-(3-hydroxy-2,2-dimethylpropyl)cyclohex-3-enecarboxamide]
[1]
  EC50: 39 nM
Table 2, read-out: EC50 value
  EC50: ≤ 50 nM

## O=C(C1CC=C(c2ccc(OCC3CCN(C(=O)C4(C(F)(F)F)CCCC4)CC3)c(F)c2)CC1)N1CCOCC1 (stereo not shown) [Example 450, (4-(3-fluoro-4-((1-(1-(trifluoromethyl)cyclopentanecarbonyl)piperidin-4-yl)methoxy)phenyl)cyclohex-3-enyl)(morpholino)methanone]
[1]
  EC50: 27 nM
Table 2, read-out: EC50 value
  EC50: ≤ 50 nM

## CC(OC(=O)N1CCC(COc2ccc(C3=CCC(C(=O)N4CCCC4)CC3)cc2F)CC1)C(F)(F)F (stereo not shown) [Example 406, 1,1,1-trifluoropropan-2-yl 4-((2-fluoro-4-(4-(pyrrolidine-1-carbonyl)cyclohex-1-enyl)phenoxy)methyl)piperidine-1-carboxylate]
[1]
  EC50: 36 nM
Table 2, read-out: EC50 value
  EC50: ≤ 50 nM
